Experimental data as given in paper PMC6017805 (2018).

Columns and labels:
Assay in all cases: UV-Vis titration (D/Δεapp vs D plot)
Conditions in all cases: phosphate buffer 50 mM pH 7.4 (Figure 2; methods say 100 mM), 25 °C, 4a 50 μM
[1] = test system: [Poly(dA)-Poly(dT)] (DNA, polymer) A/T
[2] = test system: [Poly(dG)-Poly(dC)] (DNA, polymer) G/C
[3] = test system: AT Box [Poly(dTATAAT)-Poly(dATATTA)] (DNA, polymer) TATAAT/ATTATA
[4] = test system: GC Box [Poly(dGGGCGG)-Poly(dCCCGCC)] (DNA, polymer) GGGCGG/CCGCCC

- Kb [1]: 9080 M⁻¹
- Kb [2]: 1150 M⁻¹
- Kb [3]: 9710 M⁻¹
- Kb [4]: 1910 M⁻¹
Structure (SMILES): N[C@@H](CCCCN1C(=O)c2cccc3cccc(c23)C1=O)C(=O)NCCNC(=O)[C@@H](N)CCCCN1C(=O)c2cccc3cccc(c23)C1=O
